Assay results published in US11866405B2, “Substituted indazoles as IRAK4 inhibitors” (AstraZeneca AB, priority 2020, dated 2024).

Assays:
[1] = molecular target: human recombinant IRAK4 protein (Homo sapiens (Human), UniProt Q9NWZ3); test: IRAK4 enzyme assay (mass spectrometry readout); assay type: biochemical; conditions: 3 mM ATP, 0.2 nM enzyme; geometric mean of at least n=2, * single experiment
Procedure, shortened: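 0.2 nM IRAK4 preincubated 15 min at room temperature with compound (10-point half-log series, top 1 μM or 10 μM) in pH 7.4 Tris buffer with 3 mM ATP; 10 μM peptide substrate added, 2 h at room temperature, formic acid stop. Phospho/unphospho peptide ratio by LC-MS/MS; potency from curve fit, geometric mean of n≥2 or single run.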

[2] = molecular target: IRAK4 auto-phosphorylation (Homo sapiens (Human), UniProt Q9NWZ3); test: IRAK4 phosphorylation cell assay in IL-1β-stimulated Karpas-299 cells; assay type: cell-based; conditions: IL-1β 22.7 ng/mL, pIRAK4 (Thr345/Ser346), geometric mean of at least 2 experiments
Chain of IRAK4 auto-phosphorylation (Q9NWZ3 whole entry): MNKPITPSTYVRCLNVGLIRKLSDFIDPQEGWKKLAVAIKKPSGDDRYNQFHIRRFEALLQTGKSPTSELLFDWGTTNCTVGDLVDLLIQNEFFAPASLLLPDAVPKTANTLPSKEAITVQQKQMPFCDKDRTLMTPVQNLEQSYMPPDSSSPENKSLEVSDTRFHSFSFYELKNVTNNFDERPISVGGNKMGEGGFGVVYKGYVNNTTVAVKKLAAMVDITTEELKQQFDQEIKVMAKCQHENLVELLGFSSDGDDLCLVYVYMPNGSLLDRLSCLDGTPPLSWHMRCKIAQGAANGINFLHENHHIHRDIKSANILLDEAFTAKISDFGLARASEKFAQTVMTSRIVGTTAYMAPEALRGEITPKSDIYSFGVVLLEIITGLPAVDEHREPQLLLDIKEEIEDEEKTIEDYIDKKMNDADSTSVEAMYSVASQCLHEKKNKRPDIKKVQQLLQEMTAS
Procedure, shortened: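 Karpas-299 cells were preincubated 1 h at 37 °C with compound (10-point half-log series, top 30 μM), then stimulated 10 min with 22.7 ng/mL IL-1β. Cells were fixed and stained for pIRAK4 (Thr345/Ser346), and per-cell fluorescence was quantified by high-content imaging. IC50 values are geometric means of at least 2 experiments.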

Chain of human recombinant IRAK4 protein (Q9NWZ3 whole entry): as above

Row | Compound | IC50 [1] [nM] | IC50 [2] [nM]
1 | COc1cc2nn([C@H]3CC[C@H](N(C)C(=O)C[C@H](C)O)CC3)cc2cc1C(=O)Nc1cnn2cccnc12 [Example 110, 2-((1S,4r)-4-((S)-3-Hydroxy-N-methylbutanamido)cyclohexyl)-6-methoxy-N-(pyrazolo[1,5-a]pyrimidin-3-yl)-2H-indazole-5-carboxamide] | 0.9 | 16
2 | CO[C@H]1C[C@H](Oc2cc3nn(C4CCC5(CC4)CN(C(C)=O)C5)cc3cc2C(=O)Nc2cnc3cccnn23)C1 [Example 100, 2-(2-Acetyl-2-azaspiro[3.5]nonan-7-yl)-N-(imidazo[1,2-b]pyridazin-3-yl)-6-((1r,3r)-3-methoxycyclobutoxy)-2H-indazole-5-carboxamide] | < 0.03 | 6
3 | COc1cc2nn([C@H]3CC[C@H](N(C)C(=O)[C@@H](C)O)CC3)cc2cc1C(=O)Nc1cnc2cccnn12 [Example 95, 2-((1R,4r)-4-((R)-2-Hydroxy-N-methylpropanamido)cyclohexyl)-N-(imidazo[1,2-b]pyridazin-3-yl)-6-methoxy-2H-indazole-5-carboxamide] | 0.2 | 7
4 | COc1cc2nn(C3CCC(N(C)C(=O)[C@H]4C[C@H](O)C4)CC3)cc2cc1C(=O)Nc1cnn2cccnc12 (stereo partly drawn) [Example 97, 2-((1R,4r)-4-((1r,3R)-3-hydroxy-N-methylcyclobutane-1-carboxamido)cyclohexyl)-6-methoxy-N-(pyrazolo[1,5-a]pyrimidin-3-yl)-2H-indazole-5-carboxamide] | 0.7 | 15
5 | COc1cc2nn([C@H]3CC[C@H](N(C)C(=O)C4CC4)CC3)cc2cc1C(=O)Nc1cnn2cnccc12 [Example 96, 6-Methoxy-2-((1r,4r)-4-(N-methylcyclopropanecarboxamido)cyclohexyl)-N-(pyrazolo[1,5-c]pyrimidin-3-yl)-2H-indazole-5-carboxamide] | 0.5 | 15
6 | COc1cc2nn(C3CCC4(CC3)COCC(=O)N4C)cc2cc1C(=O)Nc1cnn2cccnc12 (single isomer, unassigned) [Example 119, 6-Methoxy-2-(1-methyl-2-oxo-4-oxa-1-azaspiro[5.5]undecan-9-yl)-N-(pyrazolo[1,5-a]pyrimidin-3-yl)-2H-indazole-5-carboxamide] | 0.5 | 16
7 | C[C@H]1C[C@H](O)CC[C@@H]1n1cc2cc(C(=O)Nc3cnn4cccnc34)c(OC3CC3)cc2n1 (relative stereo) [Example 43, rel-6-Cyclopropoxy-2-(1S,2S,4R)-4-hydroxy-2-methylcyclohexyl)-N-(pyrazolo[1,5-a]pyrimidin-3-yl)-2H-indazole-5-carboxamide] | 1.8 | 101
8 | COc1cc2nn([C@H]3CC[C@H](N(C)C(=O)[C@@H]4CC[C@@H](O)C4)CC3)cc2cc1C(=O)Nc1cnn2cccnc12 (relative stereo) [Example 113] | 0.7 | 23
9 | COc1cc2nn([C@@H]3CCC(N(C)C(C)=O)C[C@H]3C)cc2cc1C(=O)Nc1cnn2cccnc12 (single isomer, unassigned) [Example 61] | 24.2 | 238
10 | COc1cc2nn([C@H]3CC[C@H](O)C[C@@H]3C)cc2cc1C(=O)Nc1cnn2cccnc12 (single isomer, unassigned) [Example 39] | 10 | 160

Now from value to compound:

Row | IC50 [1] [nM] | IC50 [2] [nM] | Compound
11 | 0.6 | 17 | COc1cc2nn([C@H]3CC[C@H](n4nccn4)CC3)cc2cc1C(=O)Nc1cnc2cccnn12 [Example 103, 2-((1r,4r)-4-(2H-1,2,3-triazol-2-yl)cyclohexyl)-N-(imidazo[1,2-b]pyridazin-3-yl)-6-methoxy-2H-indazole-5-carboxamide]
12 | 1.6 | 57 | COc1cc2nn([C@H]3CCC[C@@H](O)C3)cc2cc1C(=O)Nc1cnc2cccnn12 (single isomer, unassigned) [Example 9]
13 | 3.8 | 56 | COc1cc2nn([C@@H]3CCC(N(C)C(C)=O)C[C@H]3C)cc2cc1C(=O)Nc1cnc2cccnn12 (single isomer, unassigned) [Example 36, N-(imidazo[1,2-b]pyridazin-3-yl)-6-methoxy-2-(1R,2R,4R*)-2-methyl-4-(N-methylacetamido)cyclohexyl)-2H-indazole-5-carboxamide]
14 | 3.2 | 57 | COc1cc2nn([C@@H]3CC[C@]4(CC(=O)N(C)C4)C[C@H]3C)cc2cc1C(=O)Nc1cnc2cccnn12 (relative stereo) [Example 73, rel-2-(5R,7R,8R)-2,7-Dimethyl-3-oxo-2-azaspiro[4.5]decan-8-yl)-N-(imidazo[1,2-b]pyridazin-3-yl)-6-methoxy-2H-indazole-5-carboxamide or rel-2-(5R,7S,8S)-2,7-Dimethyl-3-oxo-2-azaspiro[4.5]decan-8-yl)-N-(imidazo[1,2-b]pyridazin-3-yl)-6-methoxy-2H-indazole-5-carboxamide]
15 | 0.6 | 15 | COc1cc2nn([C@H]3CCC[C@@H](O)[C@@H]3C)cc2cc1C(=O)Nc1cnc2cccnn12 (single isomer, unassigned) [Example 109]
16 | 0.4 | 7 | COc1cc2nn([C@@H]3CC[C@]4(CC(=O)N(C)C4)C[C@H]3C)cc2cc1C(=O)Nc1cnc2cccnn12 (relative stereo) [Example 72, rel-2-(5R,7R,8R)-2,7-Dimethyl-3-oxo-2-azaspiro[4.5]decan-8-yl)-N-(imidazo[1,2-b]pyridazin-3-yl)-6-methoxy-2H-indazole-5-carboxamide or rel-2-(5R,7S,8S)-2,7-Dimethyl-3-oxo-2-azaspiro[4.5]decan-8-yl)-N-(imidazo[1,2-b]pyridazin-3-yl)-6-methoxy-2H-indazole-5-carboxamide]
17 | 0.7 | 14 | COc1cc2nn([C@@H]3CC[C@H](O)[C@H](C)C3)cc2cc1C(=O)Nc1cnc2cccnn12 (single isomer, unassigned) [Example 77]
18 | 6.1 | 46 | COc1cc2nn(C3CCC(C)(O)CC3)cc2cc1C(=O)Nc1cnc2cccnn12 (single isomer, unassigned) [Example 49, 2-(4-Hydroxy-4-methylcyclohexyl)-N-(imidazo[1,2-b]pyridazin-3-yl)-6-methoxy-2H-indazole-5-carboxamide]
19 | 2.8 | 46 | COc1cc2nn([C@H]3CCC[C@@](C)(O)C3)cc2cc1C(=O)Nc1cnn2cccnc12 (single isomer, unassigned) [Example 51]
20 | 0.4 | 16 | COc1cc2nn([C@H]3CCC[C@@H](O)[C@@H]3C)cc2cc1C(=O)Nc1cnc2cccnn12 (single isomer, unassigned) [Example 108]
21 | 0.7 | 44 | COc1cc2nn(C3CCC4(CC3)CC(C)(O)C4)cc2cc1C(=O)Nc1cnc2cccnn12 (single isomer, unassigned) [Example 6, 2-(2-Hydroxy-2-methylspiro[3.5]nonan-7-yl)-N-(imidazo[1,2-b]pyridazin-3-yl)-6-methoxy-2H-indazole-5-carboxamide]
22 | 3.4 | 84 | COc1cc2nn([C@H]3CCC[C@@](C)(O)C3)cc2cc1C(=O)Nc1cnn2cccnc12 (single isomer, unassigned) [Example 50]
